Assay results taken from ChEMBL document CHEMBL5038634, “Virtual Screening Directly Identifies New Fragment-Sized Inhibitors of Carboxylesterase Notum with Nanomolar Activity” (J Med Chem, 2022).
In brackets after ≈: the same amount, converted by molar mass. Several values for one entry are separate records, joined by “and”; a condition that tells them apart may be missing. Identical values can stand only once.

system: not listed separately; experiment: Half life in C57BL/6J mouse at 0.4 mg/kg, iv measured at 0.08 to 24 hrs by LC-MS/MS analysis; assay type: ADME, organism-based; conditions: in vivo, time 0.08-24 hrs

SMILES | half-life [min]
Cc1ccc(Sc2ccc3n[nH]c(=O)n3n2)cc1 | 36
O=c1[nH]nc2ccc(Sc3cccc(OC(F)(F)F)c3)nn12 | 6

Second part, the molecule after the results:

half-life [min] | SMILES
18 | O=c1[nH]nc2ccc(Sc3cccc(Cl)c3)nn12
42 | O=c1[nH]nc2ccc(Sc3ccc(Cl)c(Cl)c3)nn12

system: not listed separately; experiment: Drug concentration in C57BL/6J mouse brain at 0.4 mg/kg, iv measured at 1 hr by LC-MS/MS analysis; assay type: ADME, organism-based; conditions: read-out: Drug uptake

SMILES | concentration at 1 h [ng/mL]
Cc1ccc(Sc2ccc3n[nH]c(=O)n3n2)cc1 | < 5
O=c1[nH]nc2ccc(Sc3cccc(OC(F)(F)F)c3)nn12 | < 5

Next, values leading:

concentration at 1 h [ng/mL] | SMILES
< 5 | O=c1[nH]nc2ccc(Sc3cccc(Cl)c3)nn12
< 5 | O=c1[nH]nc2ccc(Sc3ccc(Cl)c(Cl)c3)nn12

target: T1, Palmitoleoyl-protein carboxylesterase NOTUM (Homo sapiens, UniProt Q6P988, C330S); experiment: Inhibition of human Notum (81 to 451 Cys330Ser) using OPTS as substrate incubated for 40 mins by fluorescence based assay; conditions: not given

SMILES | IC50 [nM]
O=c1[nH]nc2ccc(Sc3ccc(Cl)cc3)nn12 | 21
CCOc1cccc(Sc2ccc3n[nH]c(=O)n3n2)c1 | 20
COc1ccc(/C=C2/N=C(c3cccc(Cl)c3Cl)OC2=O)c(OC)c1 | > 10000
Cc1ccc(Oc2ccc3n[nH]c(=O)n3n2)cc1 | 3100
O=c1[nH]nc2ccc(Sc3cccc(Cl)c3Cl)nn12 | 13
O=c1[nH]nc2ccc(Sc3cccc(C(F)(F)F)n3)nn12 | 410
O=c1[nH]nc2ccc(Sc3ccc(F)cc3)nn12 | 94
Cc1ccc(C2=N/C(=C/c3cccs3)C(=O)O2)cc1C | 24
Cc1ccc(Sc2nn3c(=O)[nH]nc3c(C)c2C)cc1 | > 10000
Cc1ccc(Sc2ccc3n[nH]c(=O)n3n2)cc1 | 27
O=c1[nH]nc2ccc(Sc3cccc(OC(F)(F)F)c3)nn12 | 4

Next, values leading:

IC50 [nM] | SMILES
6 | O=c1[nH]nc2ccc(Sc3cccc(Cl)c3)nn12
200 | Cc1ccc(C2=N/C(=C/c3ccccc3)C(=O)O2)cc1C
17 | O=c1[nH]nc2ccc(Sc3cccc(C(F)(F)F)c3)nn12
990 | Cc1ccc(N(C)c2ccc3n[nH]c(=O)n3n2)cc1
54 | O=C1OC(c2cccc(Cl)c2Cl)=N/C1=C/c1cccs1
14 | Cc1cccc(Sc2ccc3n[nH]c(=O)n3n2)c1C
150 | O=c1[nH]nc2ccc(Sc3ccccc3)nn12
9 | Cc1cccc(Sc2ccc3n[nH]c(=O)n3n2)c1
> 10000 | Cc1ccc([S+]([O-])c2ccc3n[nH]c(=O)n3n2)cc1 (centres undefined)
> 10000 | Cc1ccc(S(=O)(=O)c2ccc3n[nH]c(=O)n3n2)cc1
100 | O=C1OC(c2cccc3ccccc23)=N/C1=C/c1ccco1
8.5 | Cc1ccc(/C=C2/N=C(c3ccc(C)c(C)c3)OC2=O)o1
48 | O=C1OC(c2ccc(Cl)cc2Cl)=N/C1=C/c1ccco1
3600 | Cc1ccc(Sc2ccc3n[nH]c(=O)n3n2)nc1
17 | Cc1ccc(/C=C2\N=C(c3ccc(C)c(C)c3)OC2=O)o1
5 | O=c1[nH]nc2ccc(Sc3ccc(Cl)c(Cl)c3)nn12

system: not listed separately; experiment: Apparent permeability from apical to basolateral side in dog MDCKII-MDR1 cells at 10 uM incubated upto 120 mins by LC-MS/MS analysis; assay type: ADME, cell-based, Canis lupus familiaris; conditions: MDCK-MDR1

Papp A→B at 2 h, 10 µM [×10⁻⁶ cm/s] | SMILES
52 | Cc1ccc(Sc2ccc3n[nH]c(=O)n3n2)cc1

system: not listed separately; experiment: Clearance in C57BL/6J mouse at 0.4 mg/kg, iv measured at 0.08 to 24 hrs by LC-MS/MS analysis; assay type: ADME, organism-based; conditions: in vivo, time 0.08-24 hrs

SMILES | clearance [mL/min/kg]
Cc1ccc(Sc2ccc3n[nH]c(=O)n3n2)cc1 | 2.8
O=c1[nH]nc2ccc(Sc3cccc(OC(F)(F)F)c3)nn12 | 24.8

Second part, the molecule after the results:

clearance [mL/min/kg] | SMILES
22.2 | O=c1[nH]nc2ccc(Sc3cccc(Cl)c3)nn12
17.8 | O=c1[nH]nc2ccc(Sc3ccc(Cl)c(Cl)c3)nn12

system: not listed separately; experiment: AUC (infinity) in C57BL/6J mouse at 0.4 mg/kg, iv measured at 0.08 to 24 hrs by LC-MS/MS analysis; assay type: ADME, organism-based; set-up: route intravenous, time upper 24 hrs, time lower 0.08 hrs, dose 0.4 mg/kg; conditions: in vivo

SMILES | AUC(0-inf) [ng·h/mL]
Cc1ccc(Sc2ccc3n[nH]c(=O)n3n2)cc1 | 2350
O=c1[nH]nc2ccc(Sc3cccc(OC(F)(F)F)c3)nn12 | 270

Continued, values first:

AUC(0-inf) [ng·h/mL] | SMILES
300 | O=c1[nH]nc2ccc(Sc3cccc(Cl)c3)nn12
370 | O=c1[nH]nc2ccc(Sc3ccc(Cl)c(Cl)c3)nn12

system: not listed separately; experiment: Aqueous solubility of the compound at pH 7.4 in pION buffer at 500uM incubated for 18 hrs by spectrophotometry analysis; assay type: physicochemical; conditions: not given

solubility at 18 h, 500 µM | SMILES
0.31 µg/mL (≈ 1.1 µM) | Cc1ccc(/C=C2\N=C(c3ccc(C)c(C)c3)OC2=O)o1
32 µg/mL and 120 µM | Cc1ccc(Sc2ccc3n[nH]c(=O)n3n2)cc1

system: not listed separately; experiment: Plasma protein binding in CD-1 mouse assessed as unbound fraction at 2 uM by Equilibrium dialysis method; assay type: ADME, cell-free; conditions: not given

fraction unbound at 2 µM | SMILES
0.011 | Cc1ccc(Sc2ccc3n[nH]c(=O)n3n2)cc1

system: HEK-293T; experiment: Cytotoxicity against HEK293T cells expressing TCF-LEF assessed as effect on total cell number by GFP based assay; assay type: toxicity; conditions: human

SMILES | Activity
O=c1[nH]nc2ccc(Sc3cccc(Cl)c3)nn12 | Non-Toxic
Cc1ccc(Sc2ccc3n[nH]c(=O)n3n2)cc1 | Non-Toxic
O=c1[nH]nc2ccc(Sc3cccc(OC(F)(F)F)c3)nn12 | Non-Toxic
O=c1[nH]nc2ccc(Sc3ccc(Cl)c(Cl)c3)nn12 | Non-Toxic

system: not listed separately; experiment: AUC (all) in C57BL/6J mouse at 0.4 mg/kg, iv measured at 0.08 to 24 hrs by LC-MS/MS analysis; assay type: ADME, organism-based; set-up: route intravenous, time 0.08-24 hrs, dose 0.4 mg/kg; conditions: in vivo

SMILES | AUC [ng·h/mL]
Cc1ccc(Sc2ccc3n[nH]c(=O)n3n2)cc1 | 2330
O=c1[nH]nc2ccc(Sc3cccc(OC(F)(F)F)c3)nn12 | 270

Second part, the molecule after the results:

AUC [ng·h/mL] | SMILES
300 | O=c1[nH]nc2ccc(Sc3cccc(Cl)c3)nn12
360 | O=c1[nH]nc2ccc(Sc3ccc(Cl)c(Cl)c3)nn12

system: not listed separately; experiment: Stability in mouse liver microsome assessed as half life at 1 uM incubated upto 60 mins in presence of NADPH by LC-MS/MS analysis; assay type: ADME; conditions: liver microsomes

half-life at 1 µM [min] | SMILES
360 | Cc1ccc(/C=C2\N=C(c3ccc(C)c(C)c3)OC2=O)o1

system: not listed separately; experiment: Apparent permeability from basolateral to apical side in dog MDCKII-MDR1 cells at 10 uM incubated upto 120 mins by LC-MS/MS analysis; assay type: ADME, cell-based, Canis lupus familiaris; conditions: MDCK-MDR1

Papp B→A at 2 h, 10 µM [×10⁻⁶ cm/s] | SMILES
43 | Cc1ccc(Sc2ccc3n[nH]c(=O)n3n2)cc1

target: T1, Palmitoleoyl-protein carboxylesterase NOTUM; experiment: Inhibition of Notum (81 to 451 Cys330Ser) in HEK293T cells expressing TCF-LEF assessed as activation of Wnt signaling using WNT3A as substrate incubated for […] by Steady-Glo luciferase assay; assay type: cell-based; conditions: not given

SMILES | EC50 [nM]
O=c1[nH]nc2ccc(Sc3ccc(Cl)cc3)nn12 | 310
CCOc1cccc(Sc2ccc3n[nH]c(=O)n3n2)c1 | 150
O=c1[nH]nc2ccc(Sc3cccc(Cl)c3Cl)nn12 | 150
O=c1[nH]nc2ccc(Sc3cccc(C(F)(F)F)n3)nn12 | > 10000
O=c1[nH]nc2ccc(Sc3ccc(F)cc3)nn12 | 540
Cc1ccc(Sc2ccc3n[nH]c(=O)n3n2)cc1 | 86
O=c1[nH]nc2ccc(Sc3cccc(OC(F)(F)F)c3)nn12 | 34

The next lines start with the values.

EC50 [nM] | SMILES
88 | O=c1[nH]nc2ccc(Sc3cccc(Cl)c3)nn12
190 | O=c1[nH]nc2ccc(Sc3cccc(C(F)(F)F)c3)nn12
240 | Cc1cccc(Sc2ccc3n[nH]c(=O)n3n2)c1
110 | O=c1[nH]nc2ccc(Sc3ccc(Cl)c(Cl)c3)nn12

system: not listed separately; experiment: Acidic dissociation constant, pKa of the compound at pH 7.4; assay type: physicochemical; conditions: not given

pKa | SMILES
7.9 | Cc1ccc(Sc2ccc3n[nH]c(=O)n3n2)cc1

system: not listed separately; experiment: Volume of distribution at steady state in C57BL/6J mouse at 0.4 mg/kg, iv measured at 0.08 to 24 hrs by LC-MS/MS analysis; assay type: ADME, organism-based; conditions: in vivo, time 0.08-24 hrs, read-out: Vdss

SMILES | Vd [L/kg]
Cc1ccc(Sc2ccc3n[nH]c(=O)n3n2)cc1 | 0.1
O=c1[nH]nc2ccc(Sc3cccc(OC(F)(F)F)c3)nn12 | 0.2

Other lines, results leading:

Vd [L/kg] | SMILES
0.3 | O=c1[nH]nc2ccc(Sc3cccc(Cl)c3)nn12
0.7 | O=c1[nH]nc2ccc(Sc3ccc(Cl)c(Cl)c3)nn12

system: not listed separately; experiment: Intrinsic clearance in mouse liver microsome at 1 uM incubated upto 60 mins in presence of NADPH by LC-MS/MS analysis; assay type: ADME; conditions: liver microsomes, read-out: CLH

microsomal CLint at 1 µM [µL/min/mg] | SMILES
1.9 | Cc1ccc(/C=C2\N=C(c3ccc(C)c(C)c3)OC2=O)o1
21 | Cc1ccc(Sc2ccc3n[nH]c(=O)n3n2)cc1

system: not listed separately; experiment: Drug concentration in C57BL/6J mouse brain at 0.4 mg/kg, iv measured at 4 hrs by LC-MS/MS analysis; assay type: ADME, organism-based; conditions: read-out: Drug uptake

SMILES | concentration at 4 h [ng/mL]
Cc1ccc(Sc2ccc3n[nH]c(=O)n3n2)cc1 | < 5
O=c1[nH]nc2ccc(Sc3cccc(OC(F)(F)F)c3)nn12 | < 5

More lines, now with the values ahead:

concentration at 4 h [ng/mL] | SMILES
< 5 | O=c1[nH]nc2ccc(Sc3cccc(Cl)c3)nn12
< 5 | O=c1[nH]nc2ccc(Sc3ccc(Cl)c(Cl)c3)nn12

system: not listed separately; experiment: C0 in C57BL/6J mouse at 0.4 mg/kg, iv measured at 0.08 to 24 hrs by LC-MS/MS analysis; assay type: ADME, organism-based; conditions: in vivo, time 0.08-24 hrs

SMILES | C0 [ng/mL]
Cc1ccc(Sc2ccc3n[nH]c(=O)n3n2)cc1 | 2620
O=c1[nH]nc2ccc(Sc3cccc(OC(F)(F)F)c3)nn12 | 1900

Results, then the molecule that gave them:

C0 [ng/mL] | SMILES
1750 | O=c1[nH]nc2ccc(Sc3cccc(Cl)c3)nn12
1580 | O=c1[nH]nc2ccc(Sc3ccc(Cl)c(Cl)c3)nn12

system: not listed separately; experiment: Apparent permeability in MDCKII-MDR1 cells assessed as compound recovery at 10 uM incubated upto 120 mins by LC-MS/MS analysis; assay type: ADME, cell-based, Canis lupus familiaris; conditions: dog, MDCK-MDR1, read-out: Activity

recovery at 2 h, 10 µM [%] | SMILES
< 25 | Cc1ccc(/C=C2\N=C(c3ccc(C)c(C)c3)OC2=O)o1

system: not listed separately; experiment: Plasma protein binding in CD-1 mouse at 2 uM by Equilibrium dialysis method; assay type: ADME, cell-free; conditions: read-out: PPB (converted)

fraction unbound at 2 µM | SMILES
0.012 | Cc1ccc(Sc2ccc3n[nH]c(=O)n3n2)cc1

system: HEK-293T; experiment: Cytotoxicity against HEK293T cells expressing TCF-LEF assessed as adverse effects on cell health by Cell Titre Glo assay; assay type: toxicity, cell-based; conditions: human

SMILES | Activity
O=c1[nH]nc2ccc(Sc3cccc(Cl)c3)nn12 | Non-Toxic
Cc1ccc(Sc2ccc3n[nH]c(=O)n3n2)cc1 | Non-Toxic
O=c1[nH]nc2ccc(Sc3cccc(OC(F)(F)F)c3)nn12 | Non-Toxic
O=c1[nH]nc2ccc(Sc3ccc(Cl)c(Cl)c3)nn12 | Non-Toxic
